According to patent USRE37781E1, “Substituted cyclic carbonyls and derivatives thereof useful as retroviral protease inhibitors” (DuPont Pharmaceuticals Company, priority 1991, dated 2002):
Like-named read-outs stand apart in the source and are kept apart here.

Key:
HIV-1 (RF) in MT-2 cells = experiment: microbe, parasite or virus in culture; assay type: cell-based; settings: Table 2d
Experimental: DNA Plasmids and in vitro RNA transcripts:
Plasmid pDAB 72 containing both gag and pol sequences of BH10 (bp 113-1816) cloned into PTZ 19R was prepared according to Erickson-Viitanen et al. AIDS Research and Human Retroviruses 1989, 5, 577. The plasmid was linearized with Bam HI prior to the generation of in vitro RNA transcripts using the Riboprobe Gemini system II kit (Promega) with T7 RNA polymerase. Synthesized RNA was purified by treatment with RNase free DNAse (Promega), phenol-chloroform extraction, and ethanol precipitation. RNA transcripts were dissolved in water, and stored at −70° C. The concentration of RNA was determined from the A260.
Biotinylated capture probes were purified by HPLC after synthesis on an Applied Biosystems (Foster City, Calif.) DNA synthesizer by addition of biotin to the 5′ terminal end of the oligonucleotide, using the biotin-phosphoramidite reagent of Cocuzza, Tet. Lett. 1989, 30, 6287. The gag biotinylated capture probe (5-biotin-[…] 3′) was complementary to nucleotides 889-912 of HXB2 and the pol biotinylated capture probe (5′-biotin-[…] 3′) was complementary to nucleotides 2374-2395 of HXB2. Alkaline phosphatase conjugated oligonucleotides used as reporter probes were prepared by Syngene (San Diego, Calif.). The pol reporter probe (5′ […] 3′) was complementary to nucleotides 2403-2425 of HXB2. The gag reporter probe (5′ […] 3′) was complementary to nucleotides 950-973 of HXB2. All nucleotide positions are those of the GenBank Genetic Sequence Data Bank as accessed through the Genetics Computer Group Sequence Analysis Software Package (Devereau Nucleic Acids Research 1984, 12, 387). The reporter probes were prepared as 0.5μM stocks in 2× SSC (0.3M NaCl, 0.03M sodium citrate), 0.05M Tris pH 8.8, 1 mg/mL BSA. The biotinylated capture probes were prepared as 10 μM stocks in water.
Streptavidin coated plates:
Nunc-immunomodule microtiter plate strips were coated by addition of 200 μL of streptavidin (30 ug/mL, Scripps, La Jolla, Calif.) in freshly prepared 10 mM sodium carbonate (pH 9.6). Plates were incubated overnight at 4° C. Streptavidin solution was aspirated from the wells and a blocking buffer composed of phosphate buffered saline (PBS), 20 mg/mL bovine serum albumin (crystalline, nuclease and protease free, Calbiochem) and 100 mg/mL lactose (Sigma) was added to the plates for 3 hrs at room temperature. Blocking buffer was removed from the wells, which were allowed to dry overnight at room temperature and subsequently stored at 4° C. in zip lock bags with desiccant. For the majority of the compound evaluation experiments, streptavidin coated plates were obtained from Du Pont Biotechnology Systems (Boston, Mass.).
MT-2, CEM, and H9 cells were maintained in RPMI 1640 supplemented with 5% fetal calf serum (FCS), 2 mM L-glutamine and 50 μg/mL gentamycin, all from Gibco. Laboratory strains of HIV-1 (RF, MN and IIIB) were propagated in H9 cells in the same medium. Virus stocks were prepared approximately 1 month after acute infection of H9 cells by clarification of the tissue culture medium and storage of aliquots at −70° C. […] Each aliquot of virus stock used for infection was thawed only once. In some cases, infected H9 cells were shifted to Dulbecco's modified Eagle's medium 3-10 days before collection of virus in order to generate virus stocks in medium with low biotin content. Clinical isolates of HIV that had been passaged once in MT-2 cells were used to infect fresh MT-2 cells in RPMI medium. Three days after infection, cells were pelleted, resuspended and culture continued in Dulbecco's modified Eagle's medium as above. Virus stocks of clinical isolates were prepaid 10-15 days after infection when cytopathic effects were apparent in the culture.

[1] = target: single-chain tethered dimer of HIV protease (Human immunodeficiency virus 1, UniProt P04585); experiment: biochemical; assay type: biochemical; design: fused on or other part: A second copy of the same protease unit is joined to the first by a short peptide tether, giving one polypeptide
Experimental: HIV Protease Inhibition Assay—HPLC Method
Active protease was prepared as described therein by extraction with 67% acetic acid, dilution 33-fold with water, dialysis against water and then against a “refolding buffer” consisting of 20 mM MES, 1 mM dithiothreitol and 10% glycerol. Protease was stored as a stock preparation at 10 uM in refolding buffer.
Substrate: Peptide of sequence: aminobenzoyl-Ala-Thr-His-Gln-Val-Tyr-Phe(NO2)-Val-Arg-Lys-Ala containing p-nitrophenylalanine, was prepared by solid phase synthesis as previously described Cheng et al., op.cit. Stock solutions of 2 mM substrate were prepared in DMSO.
Inhibitory compounds were dissolved in sufficient DMSO to make 3 mM stock solutions. All further dilutions were prepared in “assay buffer”: 1M NaCl, 50 mM MES, pH 5.5, 1 mM EDTA, 1 mM DTT, […] glycerol.
Enzyme reaction: In a 2 ml screw-cap centrifuge tube were added 50 ul protease (final concentration 0.25 nM) and 0.1 ml inhibitory compound (final concentration […]). After 15 min preincubation at room temperature, the reaction was started with the addition of 0.05 ml substrate (final concentration 5 uM). Incubation was carried out at 30 C. for 1 hr. The reaction was stopped with 1 ml 0.1M ammonium hydroxide.
HPLC measurement of product formation: The product (aminobenzoyl-Ala-Thr-His-Gln-Val-Tyr) was separated from substrate on a Pharmacia MonoQ anion exchange column. The injection volume was 0.2 ml. The mobile phases were: A (20 mM trisHCl, pH 9.0, 0.02% sodium Azide, 10% acetonitrile), B (20 mM tris HCl, pH 9.0, 0.02% sodium azide, 0.5M ammonium formate, 10% acetonitrile). The mobile phases were pumped at 1 ml/min, with a gradient from 0 to 30% B in 5 min, 100% B for 4 min to wash the column, and a re-equilibration for 4 min. The retention time of the product was 3.6 min. Detection with a Shimadzu model RF535 fluorescence monitor was at 330 nm (excitation) and 430 (emission).

[2] = Human immunodeficiency virus 1, MT2, 48 h, class symbols, read-out: IC90
[3] = read-out: HPLC K1, Table 2d, class symbols
[4] = Table 2d, HIV protease inhibition, HPLC method, read-out: HPLC K1

Question: Which IC90 (HIV-1 (RF) in MT-2 cells; [2]) does the source give for `CCN(CC)C(=O)c1cccc(CN2C(=O)N(Cc3cccc(C(=O)OC)c3)C(Cc3ccccc3)C(O)C(O)C2Cc2ccccc2)c1` (stereo not shown) [11T] here?
Answer: Its IC90 is under 10 µg/mL.

Question: And the Ki [1, 3]?
Answer: The Ki was under 10 nM.

Question: Which IC90 (HIV-1 (RF) in MT-2 cells; [2]) does the source give for `CCNC(=O)c1cccc(CN2C(=O)N(Cc3cccc(C(=O)OC)c3)C(Cc3ccccc3)C(O)C(O)C2Cc2ccccc2)c1` (stereo not shown) [11U] here?
Answer: The IC90 was under 10 µg/mL.

Question: What about the Ki [1, 3] of the same compound?
Answer: The Ki was under 10 nM.

Question: Which IC90 (HIV-1 (RF) in MT-2 cells; HIV RNA assay) does the source give for `CC(=O)c1cccc(CN2C(=O)N(Cc3cccc(C(=O)CCN(C)C)c3)C(Cc3ccccc3)C(O)C(O)C2Cc2ccccc2)c1` (stereo not shown) [15AD] here?
Answer: Its IC90 is “+++ (+++=<10 μg/mL)”.

Question: What about the Ki [1, 4] of the same compound?
Answer: The Ki was under 10 nM.

Question: Which results are given for `CC(C)(C)OC(=O)NN=Cc1cccc(CN2C(=O)N(Cc3cccc(C=NNC(=O)OC(C)(C)C)c3)C(Cc3ccccc3)C(O)C(O)C2Cc2ccccc2)c1` (stereo not shown) [15AL]?
Answer: IC90 (HIV-1 (RF) in MT-2 cells; HIV RNA assay): +++ (+++=<10 μg/mL); Ki [1, 4]: 10 to 1000 nM

Question: Which results are given for `CNC(=NO)c1cccc(CN2C(=O)N(Cc3cccc(C(=NO)NC)c3)C(Cc3ccccc3)C(O)C(O)C2Cc2ccccc2)c1` (stereo not shown) [15AZ]?
Answer: IC90 (HIV-1 (RF) in MT-2 cells; HIV RNA assay): +++ (+++=<10 μg/mL); Ki [1, 4]: < 10 nM

Question: How did the Ki ([1]; Table 2e, read-out: K4 HPLC) turn out when `C=CCN1C(=O)N(CCCC)C(C)C(O)C(O)C1C` (stereo not shown) [Example 16F] was run?
Answer: Its Ki is over 1000 nM.

Question: Which Ki ([1]; read-out: K4 HPLC, Table 2e) does the source give for `CC1C(O)C(O)C(C)N(Cc2ccccc2)C(=O)N1Cc1ccccc1` (stereo not shown) [Example 16G] here?
Answer: The Ki was over 1000 nM.

Question: `C=CCN1C(=O)N(CC=C)C(CC(C)C)C(O)C(O)C1CC(C)C` (stereo not shown) [Example 16I] was tested. Which Ki ([1]; read-out: K4 HPLC, Table 2e) did it give?
Answer: The Ki was under 10 nM.

Question: How did the Ki ([1]; Table 2e, read-out: K4 HPLC) turn out when `CC(C)CC1C(O)C(O)C(CC(C)C)N(CC2CC2)C(=O)N1CC1CC1` (stereo not shown) [Example 16J] was run?
Answer: The Ki was under 10 nM.

Question: How did the Ki ([1]; Table 2e, read-out: K4 HPLC) turn out when `CSc1ccc(CC2C(O)C(O)C(Cc3ccc(SC)cc3)N(Cc3ccccc3)C(=O)N2Cc2ccccc2)cc1` (stereo not shown) [Example 16Q] was run?
Answer: Its Ki is under 10 nM.

Question: How did the Ki ([1]; Table 2e, read-out: K4 HPLC) turn out when `COc1cccc(CN2C(=O)N(Cc3cccc(OC)c3)C(Cc3ccccc3OC)C(O)C(O)C2Cc2ccccc2OC)c1` (stereo not shown) [Example 16R] was run?
Answer: Its Ki is 10 to 1000 nM.

Question: With `COc1ccccc1CC1C(O)C(O)C(Cc2ccccc2OC)N(CC2CC2)C(=O)N1CC1CC1` (stereo not shown) [Example 16S] as the compound, how does the Ki ([1]; Table 2e, read-out: K4 HPLC) read?
Answer: The Ki was 10 to 1000 nM.

Question: Which Ki ([1]; Table 2e, read-out: K4 HPLC) does the source give for `COc1ccccc1CC1C(O)C(O)C(Cc2ccccc2OC)N(Cc2ccccc2)C(=O)N1Cc1ccccc1` (stereo not shown) [Example 16T] here?
Answer: The Ki was 10 to 1000 nM.

Question: `CCCCCCN1C(=O)N(CCCCCC)C(C(C)C)C(O)C(O)C1C(C)C` (stereo not shown) [Example 16X] was tested. Which Ki ([1]; Table 2e, read-out: K4 HPLC) did it give?
Answer: Its Ki is under 10 nM.

Question: Which Ki ([1]; Table 2e, read-out: K4 HPLC) does the source give for `O=C1N(Cc2ccccc2)C(Cc2c[nH]c3ccccc23)C(O)C(O)C(Cc2c[nH]c3ccccc23)N1Cc1ccccc1` (stereo not shown) [Example 16Y] here?
Answer: Its Ki is 10 to 1000 nM.

Question: `CC(C)CC1C(O)C(O)C(CC(C)C)N(Cc2ccccc2)C(=O)N1Cc1ccccc1` (stereo not shown) [Example 16Z] was tested. Which Ki ([1]; Table 2e, read-out: K4 HPLC) did it give?
Answer: The Ki was 10 to 1000 nM.

Question: For `ON=C1N(Cc2ccccc2)C(Cc2ccccc2)C(O)C(O)C(Cc2ccccc2)N1Cc1ccccc1` (stereo not shown) [Example 17A], which Ki ([1]; Table 2f, read-out: HPLC Ki) is on record?
Answer: The Ki was 10 to 1000 nM.

Question: And the Ki ([1]; second table headed Table 2f, read-out: HPLC Ki)?
Answer: The Ki was 10 to 1000 nM.

Question: What about the Ki ([1]; third table headed Table 2f, read-out: HPLC Ki) of the same compound?
Answer: Its Ki is 10 to 1000 nM.

Question: How did the Ki ([1]; read-out: HPLC Ki, Table 2i) turn out when `O=C1N(Cc2cccc(O)c2)C(Cc2ccc(F)cc2)C(O)C(O)C(Cc2ccc(F)cc2)N1Cc1cccc(O)c1` (stereo not shown) [Example 20G] was run?
Answer: The Ki was under 10 nM.
